From US20240238318A1, “L-FUCOSE AND ANTI-ANDROGEN RECEPTOR THERAPY FOR TREATMENT OF CANCER” (H. LEE MOFFITT CANCER CENTER AND RESEARCH INSTITUTE, INC., priority 2021, published 2024) come the findings set out here.

The test system of the assay is tumor growth and metastasis. Description: dietary L-fucose supplementation in mouse tumor models. The class given is in vivo. An excerpt: Global fucosylation is reduced during progression in human melanomas (UEA1 fucose-binding lectin staining analysis of tumor microarray (TMA; n=˜300 patients)) via an ATF2-mediated transcriptional repression of fucokinase (FUK). However, AR transcriptionally upregulates Fucosyltransferase 4 (FUT4) expression via binding to the ARE motif in FUT4 promoter (FIG. 3). Additionally, the global tumor fucosylation is more pronounced in males relative to females (FIG. 4). […] Furthermore, the AR-FUT4 axis facilitates melanoma invasion via disrupting N-Cadherin/catenin junction complexes (FIG. 6). […] Thus, FUT4 is required for androgen-stimulated melanoma cell viability and motility (FIG. 7).

In the case of `C[C@H](O)[C@@H](O)[C@@H](O)[C@H](O)C=O` [L-fucose], the “block of tumor growth and metastasis” value is reported as greater than 50%.
